According to patent publication US10597674B2, “HPPD variants and methods of use” (BASF Agricultural Solutions Seed, US LLC, priority 2015, dated 2020):

Tests used:
[1] = system: transgenic soybean T0 events; test: Greenhouse spray test of T0 soybean events, herbicide tolerance rating 0-3; type: in vivo; conditions: wild-type soybean plants, 300 g AI/ha, 5 days after spraying
Procedure: Tolerant green shoots were transferred to rooting media or grafted. Rooted plantlets were transferred to the greenhouse after an acclimation period. Plants containing the transgene were then sprayed with HPPD inhibitor herbicides, as for example with mesotrione at a rate of 300-600 g AI/ha, or with Cmpd. […] Five to ten days after the application, the symptoms due to the application of the herbicide were evaluated and compared to the symptoms observed on wild-type plants under the same conditions.
For example, T0 soybean plants having a “plant expression cassette”, which includes an HPPD inhibitor tolerant HPPD polypeptide of the present invention, were tested towards the tolerance of Cmpd. 1.
Prior greenhouse trials with the transgenic plants, soybean transformants were routinely analyzed for the expression and presence of the transgenes using the ELISA protein detection method (see detailed description under item D and H). Only plants recovering in the selection media and having a detectable HPPD transgene protein expression were used for the herbicide tolerance analysis. A DeVries Tracker Sprayer was calibrated prior to each spraying. The chemical formulation used for Cmpd. 1 was supplemented with ammonium sulfate and methylated rape seed oil. Spray tests were conducted with a concentration, which equals to 300 grams AI per hectare (300 g AI/ha). Tolerance was evaluated 5 days after spraying. […] A rating of “3” was assigned to plants showing good tolerance, i.e. less than 10% of the leaf area from the top three trifoliate leaves showing chlorosis or only very slight bleaching.

[2] = system: transgenic T1 soybean events; test: Field trials of T1 soybean events, leaf damage eight days after application; type: in vivo; conditions: wild-type or segregated T1 soybean plants without tolerant polypeptide; 210 g/ha isoxaflutole or 150 g/ha Cmpd. 1; eight days
Method in brief: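 T1 soybean events carrying the HPPD inhibitor tolerant polypeptide, field-grown and sprayed with isoxaflutole 210 g/ha or Cmpd 150 g/ha. Leaf damage scored eight days after application; good tolerance defined as ≤15% damaged leaf area, reported as event frequency.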

CSc1c(C(F)(F)F)ccc(C(=O)Nc2nnnn2C)c1Cl [Cmpd. 1, 2-chloro-3-(methylsulfanyl)-N-(1-methyl-1H-tetrazol-5-yl)-4-(trifluoromethyl)benzamide, reference compound]
leaf damage of the top two trifoliate leaves [1]: more than 95%
leaf damage [2]: 100%
